What was measured:
Assay in all cases: relative viability (nuclei count vs DMSO), 5 days (fraction); higher = more cells survive
KN-93 + Alpelisib = compound: CN(C/C=C/C1=CC=C(C=C1)Cl)CC2=CC=CC=C2N(CCO)S(=O)(=O)C3=CC=C(C=C3)OC [KN-93] + Cc1nc(NC(=O)N2CCC[C@H]2C(N)=O)sc1-c1ccnc(C(C)(C)C(F)(F)F)c1 [Alpelisib] (partner 2 µM)
Outline: (§1)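 Medians of duplicate plates are given as relative viability. That measure is the nuclei count in treated wells divided by the count in vehicle wells. Counts were taken on 4× images of lung cancer cell lines in 1536-well plates, 5 days after pin-tool dosing the day after seeding with one drug alone or a fixed anchor-drug dose plus five library-drug doses (not always all listed) in √10 steps.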

KN-93 + Bortezomib = compound: CN(C/C=C/C1=CC=C(C=C1)Cl)CC2=CC=CC=C2N(CCO)S(=O)(=O)C3=CC=C(C=C3)OC [KN-93] + CC(C)C[C@H](NC(=O)[C@H](Cc1ccccc1)NC(=O)c1cnccn1)B(O)O [Bortezomib] (partner 0.002 µM)
Outline: as §1

KN-93 + Pictilisib = compound: CN(C/C=C/C1=CC=C(C=C1)Cl)CC2=CC=CC=C2N(CCO)S(=O)(=O)C3=CC=C(C=C3)OC [KN-93] + CS(=O)(=O)N1CCN(Cc2cc3nc(-c4cccc5[nH]ncc45)nc(N4CCOCC4)c3s2)CC1 [Pictilisib] (partner 1 µM)
Outline: as §1

KN-93 + Crizotinib = compound: CN(C/C=C/C1=CC=C(C=C1)Cl)CC2=CC=CC=C2N(CCO)S(=O)(=O)C3=CC=C(C=C3)OC [KN-93] + C[C@@H](Oc1cc(-c2cnn(C3CCNCC3)c2)cnc1N)c1c(Cl)ccc(F)c1Cl [Crizotinib] (partner 1 µM)
Outline: as §1

KN-93 + Linsitinib = compound: CN(C/C=C/C1=CC=C(C=C1)Cl)CC2=CC=CC=C2N(CCO)S(=O)(=O)C3=CC=C(C=C3)OC [KN-93] + C[C@]1(O)C[C@@H](c2nc(-c3ccc4ccc(-c5ccccc5)nc4c3)c3c(N)nccn32)C1 [Linsitinib] (partner 1 µM)
Outline: as §1

Cell Line | relative viability (KN-93 + Alpelisib; first compound 0.253 µM) | relative viability (KN-93 + Alpelisib; first compound 2.53 µM) | relative viability (KN-93 + Alpelisib; first compound 8 µM) | relative viability (KN-93 + Bortezomib; first compound 0.253 µM) | relative viability (KN-93 + Bortezomib; first compound 2.53 µM) | relative viability (KN-93 + Bortezomib; first compound 8 µM) | relative viability (KN-93 + Pictilisib; first compound 0.253 µM) | relative viability (KN-93 + Pictilisib; first compound 2.53 µM) | relative viability (KN-93 + Pictilisib; first compound 8 µM) | relative viability (KN-93 + Crizotinib; first compound 0.253 µM) | relative viability (KN-93 + Crizotinib; first compound 2.53 µM) | relative viability (KN-93 + Crizotinib; first compound 8 µM) | relative viability (KN-93 + Linsitinib; first compound 0.253 µM) | relative viability (KN-93 + Linsitinib; first compound 2.53 µM) | relative viability (KN-93 + Linsitinib; first compound 8 µM) | relative viability (KN-93 + Alpelisib; first compound 0.08 µM) | relative viability (KN-93 + Bortezomib; first compound 0.08 µM) | relative viability (KN-93 + Pictilisib; first compound 0.08 µM) | relative viability (KN-93 + Crizotinib; first compound 0.08 µM) | relative viability (KN-93 + Linsitinib; first compound 0.08 µM)
NCI-H520 | 1.38 | 1.05 | 0.763 | 0.883 | 0.914 | 0.511 | 0.32 | 0.297 | 0.26 | 1.08 | 0.759 | 0.586 | 1.21 | 1.12 | 0.682 | – | – | – | – | –
NCI-H596 | 0.459 | 0.51 | 0.334 | 1.29 | 1.18 | 0.942 | 0.361 | 0.381 | 0.368 | 1.09 | 1.03 | 0.691 | 1.19 | 1.03 | 0.89 | 0.442 | 1.02 | 0.419 | 0.906 | 1
NCI-H647 | 1.52 | 1.32 | 0.717 | 1.16 | 1.63 | 0.986 | 0.327 | 0.462 | 0.336 | 1.48 | 1.13 | 0.511 | 1.5 | 1.65 | 0.952 | 1.39 | 0.712 | 0.493 | 0.916 | 1.33
NCI-H650 | 1.34 | 1.04 | 0.65 | 0.915 | 1.25 | 0.454 | 0.892 | 1.06 | 0.605 | 0.735 | 0.772 | 0.488 | 0.836 | 1.21 | 0.562 | 1.04 | 0.959 | 0.906 | 0.866 | 0.893
